Source: patent publication US20110201550A1, “COMBINATION OF AMIDINE DERIVATIVES WITH CYCLIC DEPSIPEPTIDES” (Bayer Animal Health GMBH, priority 2008, published 2011)

Test system: Nippostrongylus brasiliensis
Experiment: In-vitro experiments with adult Nippostrongylus brasiliensis: acetylcholine esterase activity in the incubation medium
Format: cell-based
Set-up: key: 0=no activity (<50% enzyme inhibition); 1=weak activity; 2=good activity; 3=full activity
Procedure: Test Method for In-Vitro Experiments with Nippostrongylus brasiliensis
Adult Nippostrongylus brasiliensis were isolated from the small intestine of female Wistar rats and transferred into 0.9% NaCl containing 20 μg/ml sisomycin and 2 μg/ml Canesten. The groups of worms (both sexes) were incubated in 1.0 ml of medium, which was also used for determining the acetylcholine esterase activity. The incubation and the enzyme assay were described in the paper by Rapson et al. (1987) Z. Parasitenkunde 73, 190-191. […] The controls only contained DMSO. The acetylcholine esterase activity in the incubation medium was determined in accordance with the above publication.
The efficacy was categorized by means of a scale 0-3, where 0=no activity (<50% enzyme inhibition); 1=weak activity; 2=good activity; 3=full activity

## C/C(=N\c1ccc(N)cc1)N(C)C [Bay d 9216]
Bay d 9216 1 ppm alone (PF1022A 0 ppm)
  efficacy (scale 0-3, acetylcholine esterase inhibition): 1
Bay d 9216 5 ppm alone (PF1022A 0 ppm)
  efficacy (scale 0-3, acetylcholine esterase inhibition): 1
Bay d 9216 10 ppm alone (PF1022A 0 ppm)
  efficacy (scale 0-3, acetylcholine esterase inhibition): 1

## COCC(=O)Nc1ccc(/N=C(\C)N(C)C)cc1 [Amidantel, amidantel]
Amidantel 10 ppm alone (PF1022A 0 ppm)
  efficacy (scale 0-3, acetylcholine esterase inhibition): 1
Amidantel 50 ppm alone (PF1022A 0 ppm)
  efficacy (scale 0-3, acetylcholine esterase inhibition): 1
Amidantel 100 ppm alone (PF1022A 0 ppm)
  efficacy (scale 0-3, acetylcholine esterase inhibition): 1

## CC(C)CC1C(=O)OC(Cc2ccccc2)C(=O)N(C)C(CC(C)C)C(=O)OC(C)C(=O)N(C)C(CC(C)C)C(=O)OC(Cc2ccccc2)C(=O)N(C)C(CC(C)C)C(=O)OC(C)C(=O)N1C (stereo not drawn) [PF1022A]
PF1022A 0.01 ppm alone (Amidantel 0 ppm)
  efficacy (scale 0-3, acetylcholine esterase inhibition): 1
PF1022A 0.01 ppm alone (Bay d 9216 0 ppm)
  efficacy (scale 0-3, acetylcholine esterase inhibition): 1
PF1022A 0.05 ppm alone (Amidantel 0 ppm)
  efficacy (scale 0-3, acetylcholine esterase inhibition): 1
PF1022A 0.05 ppm alone (Bay d 9216 0 ppm)
  efficacy (scale 0-3, acetylcholine esterase inhibition): 1
PF1022A 0.1 ppm alone (Amidantel 0 ppm)
  efficacy (scale 0-3, acetylcholine esterase inhibition): 2
PF1022A 0.1 ppm alone (Bay d 9216 0 ppm)
  efficacy (scale 0-3, acetylcholine esterase inhibition): 2
